Measured values: US20110184004A1, “PREDICTIVE MARKER FOR EGFR INHIBITOR TREATMENT” (priority 2007, published 2011)
Entries after “also recorded” stand apart in the source; their conditions may differ.

Experiments:
NSCLC [1] = settings: cited from earlier work
advanced NSCLC = test: Open-label Phase II predictive marker study of Tarceva monotherapy, response by RECIST; format: in vivo, human; settings: 102 analysed patients, oral 150 mg/day
Method: Clinical benefit was defined as either having an objective response, or disease stabilization for ≧12 weeks.
Based on the experience from the BR.21 study, benefiting population was defined as either having objective response, or disease stabilization for 12 weeks. Clinical and microarray datasets were analyzed according to a pre-defined statistical plan.
Overview of Study Design and Dosing Regimen This was an open-label, predictive marker identification Phase II study. The study was conducted in approximately 26 sites in about 12 countries. 264 patients with advanced NSCLC following failure of at least one prior chemotherapy regimen were enrolled over a 12 month period. […] Dose reductions were permitted based on tolerability to drug therapy. Clinical and laboratory parameters were assessed to evaluate disease control and toxicity. Treatment continued until disease progression, unacceptable toxicity or death. The study design is depicted in FIG. 1.
The RECIST (Uni-dimensional Tumour Measurement) criteria were used to evaluate response. These criteria can be found under the following link: http://www.eortc.be/recist/
Note that: To be assigned a status of CR or PR, changes in tumour measurements must be confirmed by repeated assessments at least 4 weeks apart at any time during the treatment period.
In the case of SD, follow-up measurements must have met the SD criteria at least once after study entry at a minimum interval of 6 weeks.
In the case of maintained SD, follow-up measurements must have met the SD criteria at least once after study entry with maintenance duration of at least 12 weeks.
Based on these parameters, data from 20 arrays were excluded from analysis. Thus data from a total of 102 arrays representing 102 patients was included in the analysis.

epithelial tumours = settings: cited from earlier work
NSCLC [2] = settings: NSCLC patients for whom standard therapy for advanced disease has failed; single agent versus placebo; 150 mg/day; cited from earlier work
[3] = patients with cancer, 150 mg/day dose; 500 ng/ml is the average plasma concentration targeted for clinical efficacy; cited from earlier work
NSCLC [4] = settings: second line therapy of NSCLC; cited from earlier work
[5] = advanced NSCLC after failure of at least one chemotherapy, RECIST
[6] = clinical benefit = objective response or disease stabilization for ≧12 weeks

SMILES: CC(=O)O[C@@]12CO[C@@H]1C[C@H](O)[C@@]1(C)C(=O)[C@H](O)C3=C(C)[C@@H](OC(=O)[C@H](O)[C@@H](NC(=O)OC(C)(C)C)c4ccccc4)C[C@@](O)([C@@H](OC(=O)c4ccccc4)[C@H]21)C3(C)C [docetaxel]
- Survival, second line (NSCLC [1]; NSCLC after failure of cisplatin-based first-line regimens, all ages, ECOG performance status 0, 1 or 2, versus best supportive care): improved survival
- Survival, third-line treatment or beyond (NSCLC [1]; patients receiving docetaxel as third-line treatment or beyond): no prolongation of survival

SMILES: C#Cc1cccc(Nc2ncnc3cc(OCCOC)c(OCCOC)cc23)c1 [Tarceva, erlotinib]
- Best Response PD (advanced NSCLC; [5]): 49 (48.0%) n (%)
- Best Response PR (advanced NSCLC; [5]): 6 (5.9%) n (%)
- Best Response SD (advanced NSCLC; [5]): 31 (30.4%) n (%)
- Clinical Benefit NO (advanced NSCLC; [6]): 81 (79.4%) n (%)
- Clinical Benefit YES (advanced NSCLC; [6]): 21 (20.6%) n (%)
- Safety and tolerability (epithelial tumours; early clinical data, doses that provide the targeted effective concentration): safe and generally well tolerated
- Clinical activity (remissions) (epithelial tumours; previously treated patients with head and neck cancer and NSCLC): capable of inducing durable partial remissions
- Survival (NSCLC [2]): significantly prolongs and improves the survival; also recorded: survival benefit
- Drug levels in plasma [3]: > 500 ng/mL

SMILES: Nc1nc2[nH]cc(CCc3ccc(C(=O)N[C@@H](CCC(=O)O)C(=O)O)cc3)c2c(=O)[nH]1 [pemetrexed]
- Efficacy compared with docetaxel (NSCLC [4]): clinically equivalent efficacy
- Side effects compared with docetaxel (NSCLC [4]): significantly fewer side effects
